In patent US9890175B2, “Taxane compound, and preparation method and use thereof” (JIANGSU TASLY DIYI PHARMACEUTICAL CO., LTD., priority 2013, dated 2018):
Like-named read-outs stand apart in the source and are kept apart here.

Assays:
Du145 prostate cancer = experiment: MTT proliferation inhibition, Du145; format: cell-based; settings: Homo sapiens, DU-145, read-out: Proliferation inhibition rate, DU145 Prostate cancer
Text: (§1) 1. Cytotoxicity Assay Using Human Tumor Cell Lines
(§2) Paclitaxel was used as the positive drug.

Caco-2 cell monolayer [1] = experiment: Caco-2 bidirectional transport, efflux ratio; settings: Caco-2 cell line (21 days); for efflux ratio: Papp B-A/Papp A-B
Text: (§3) Human-derived colorectal adenocarcinoma cell line Caco-2 cell monolayer model was used to study the bidirectional transport of the target compounds from the apical (AP) side to the basolateral (BL) side and from BL side to AP side. HPLC was used for quantitative analysis to calculate transport parameters, apparent permeability coefficient (Papp) and the efflux ratio.

[2] = test system: MCF-7 breast cancer cells; experiment: MTT proliferation inhibition, MCF-7; format: cell-based; settings: Homo sapiens, MCF7, read-out: Proliferation inhibition rate, MCF-7 Breast cancer
Text: as §1, §2

HCT 116 colon cancer = experiment: MTT proliferation inhibition, HCT 116; format: cell-based; settings: Homo sapiens, HCT-116, read-out: Proliferation inhibition rate, HCT 116 Colon cancer
Text: as §1, §2

A375 melanoma = experiment: MTT proliferation inhibition, A375; format: cell-based; settings: Homo sapiens, A-375, read-out: Proliferation inhibition rate, A375 Melanoma
Text: as §1, §2

HT-29 colon cancer = experiment: MTT proliferation inhibition, HT-29; format: cell-based; settings: Homo sapiens, HT-29, read-out: Proliferation inhibition rate, HT29 Colon cancer
Text: as §1, §2

LN-18 = experiment: MTT proliferation inhibition, LN-18; format: cell-based; settings: Homo sapiens, LN-18, read-out: Proliferation inhibition rate, LN-18 Gastric canser
Text: as §1, §2

[3] = test system: A549 non-small cell lung cancer; experiment: MTT proliferation inhibition, A549; format: cell-based; settings: Homo sapiens, A549, read-out: Proliferation inhibition rate, A549 Non-small cell lung cancer
Text: as §1, §2

[4] = test system: NCI-H460 non-small cell lung cancer; experiment: MTT proliferation inhibition, NCI-H460; format: cell-based; settings: Homo sapiens, NCI-H460, read-out: Proliferation inhibition rate, NCI-H460 Non-small cell lung cancer
Text: as §1, §2

Hela cervical cancer = experiment: MTT proliferation inhibition, HeLa; format: cell-based; settings: Homo sapiens, read-out: Proliferation inhibition rate, HeLa Uterin cancer
Text: as §1, §2

A2780 ovarian cancer = experiment: MTT proliferation inhibition, A2780; format: cell-based; settings: Homo sapiens, A2780, read-out: Proliferation inhibition rate, A2780 Ovarian cancer
Text: as §1, §2

BGC-823 gastric cancer = experiment: MTT proliferation inhibition, BGC-823; format: cell-based; settings: Homo sapiens, BGC-823, read-out: Proliferation inhibition rate, BGC-823 Gastric cancer
Text: as §1, §2

K562 leukemia = experiment: MTT proliferation inhibition, K562; format: cell-based; settings: Homo sapiens, K562, read-out: Proliferation inhibition rate, K562 Leukemia
Text: as §1, §2

LNCaP prostate cancer = experiment: MTT proliferation inhibition, LNCaP; format: cell-based; settings: Homo sapiens, read-out: Proliferation inhibition rate, LNCaP Prostate cancer
Text: as §1, §2

[5] = test system: MDA-MB-436 breast cancer cells; experiment: MTT proliferation inhibition, MDA-MB-436; format: cell-based; settings: Homo sapiens, MDA-MB-436, read-out: Proliferation inhibition rate, MDA-MB-436 Breast cancer
Text: as §1, §2

B16 melanoma = experiment: MTT proliferation inhibition, B16; format: cell-based; settings: B16, read-out: Proliferation inhibition rate, B16 Melanoma
Text: as §1, §2

[6] = test system: breast cancer cell line MCF-7; experiment: IC50 on breast cancer cell line MCF-7; format: cell-based; settings: Homo sapiens
HL-60 leukemia = experiment: MTT proliferation inhibition, HL-60; format: cell-based; settings: Homo sapiens, HL-60, read-out: Proliferation inhibition rate, HL60 Leukemia
Text: as §1, §2

[7] = Caco-2 cell monolayer membrane transport assay (Papp and recovery); format: in vitro ADME; settings: human
Text: Caco-2 Cell Monolayer Membrane Transport Assay
as §3

[8] = Caco-2 bidirectional transport, efflux ratio; settings: human, Caco-2
Text: as §3

Caco-2 cell monolayer [9] = settings: human
Text: as §3

[10] = reported value; cited from earlier work
[11] = MCF7, 72 h, read-out: MCF-7 (IC50, nM)
[12] = Caco-2, Caco-2, A-B, Mean, read-out: Papp A-B, Mean
[13] = Caco-2, Caco-2, A-B, Mean, read-out: Recovery rate in mass, Mean
[14] = Caco-2, Caco-2, A-B, Sample-01, read-out: Papp A-B, Sample-01
[15] = Caco-2, Caco-2, A-B, Sample-01, read-out: Recovery rate in mass, Sample-01
[16] = Caco-2, Caco-2, A-B, Sample-02, read-out: Papp A-B, Sample-02
[17] = Caco-2, Caco-2, A-B, Sample-02, read-out: Recovery rate in mass, Sample-02

SMILES	inhibition at 1 µM (Du145 prostate cancer)	inhibition at 1 µM [2]	inhibition at 1 µM (HCT 116 colon cancer)	inhibition at 1 µM (A375 melanoma)	inhibition at 1 µM (HT-29 colon cancer)	inhibition at 1 µM (LN-18)	inhibition at 1 µM [3]	inhibition at 1 µM [4]	inhibition at 1 µM (Hela cervical cancer)	inhibition at 1 µM (A2780 ovarian cancer)	inhibition at 1 µM (BGC-823 gastric cancer)	inhibition at 1 µM (K562 leukemia)	inhibition at 1 µM (LNCaP prostate cancer)	inhibition at 1 µM [5]	inhibition at 1 µM (B16 melanoma)	IC50 [6, 11]	inhibition at 1 µM (HL-60 leukemia)	recovery [7, 13]	Papp A→B [7, 14]	recovery [7, 15]	other results
CO[C@H]1C(=O)[C@]2(C)[C@@H](OC)C[C@H]3OC[C@@]3(OC(C)=O)[C@H]2[C@H](OC(=O)c2ccccc2)[C@]23OC(=O)O[C@H]2[C@H](OC(=O)[C@H](O)[C@@H](NC(=O)OC(C)(C)C)c2ccccc2)C(C)=C1C3(C)C [PCMI-01]	87.8%	96%	59.7%	90.8%	89.4%	92.8%	66.9%	87.9%	101%	96.7%	93.1%	92.8%	80.7%	81.5%	78.1%	2.1 ± 0.08 nM	96.6%	54.7%	4.47 ×10⁻⁶ cm/s	48.2%	Papp A-B (Caco-2 cell monolayer [1]): 2.83 10^−6 cm/s; Papp B-A (Caco-2 cell monolayer [1]): 18.20 10^−6 cm/s; efflux ratio (Caco-2 cell monolayer [1]): 6.42; Papp A→B [7, 12]: 4.17 ×10⁻⁶ cm/s; Papp A→B [7, 16]: 3.87 ×10⁻⁶ cm/s; recovery [7, 17]: 61.2%
CO[C@H]1C(=O)[C@]2(C)CC[C@H]3OC[C@@]3(OC(C)=O)[C@H]2[C@H](OC(=O)c2ccccc2)[C@]23OC(=O)O[C@H]2[C@H](OC(=O)[C@H](O)[C@@H](NC(=O)OC(C)(C)C)c2ccccc2)C(C)=C1C3(C)C [PCMI-07]	86.8%	87.1%	68.8%	92.5%	86.6%	96.1%	74.9%	82.7%	100%	95%	94.1%	94%	84.9%	80.5%	78.6%	4.49 ± 0.02 nM	97.5%	50.3%	3.24 ×10⁻⁶ cm/s	54.2%	Papp A-B (Caco-2 cell monolayer [1]): 2.64 10^−6 cm/s; Papp B-A (Caco-2 cell monolayer [1]): 25.26 10^−6 cm/s; efflux ratio (Caco-2 cell monolayer [1]): 9.56; Papp A→B [7, 12]: 2.64 ×10⁻⁶ cm/s; Papp A→B [7, 16]: 2.05 ×10⁻⁶ cm/s; recovery [7, 17]: 46.3%
COC(=O)O[C@H]1C[C@H]2OC[C@@]2(OC(C)=O)[C@H]2[C@H](OC(=O)c3ccccc3)[C@]34OC(=O)O[C@H]3[C@H](OC(=O)[C@H](O)[C@@H](NC(=O)OC(C)(C)C)c3ccccc3)C(C)=C([C@@H](OC)C(=O)[C@]12C)C4(C)C [PCMI-17]	90.7%	93.1%	69.6%	94.9%	88.5%	95.9%	80.3%	89.2%	101%	96.6%	95.1%	96.5%	86.7%	85.1%	82.3%	3.84 ± 0.08 nM	97.3%	88.7%	4.7 ×10⁻⁶ cm/s	104%	Papp A→B [8]: 2.4 ×10⁻⁶ cm/s; Papp B→A [8]: 5.74 ×10⁻⁶ cm/s; efflux ratio [8]: 2.39; Papp A→B [7, 16]: 3.16 ×10⁻⁶ cm/s; recovery [7, 17]: 73.9%
COC(=O)O[C@H]1C[C@H]2OC[C@@]2(OC(C)=O)[C@H]2[C@H](OC(=O)c3ccccc3)[C@]34OC(=O)O[C@H]3[C@H](OC(=O)[C@H](O)[C@@H](NC(=O)N(C)C)c3ccccc3)C(C)=C([C@@H](OC)C(=O)[C@]12C)C4(C)C [PCMI-19]	90%	89.7%	67.3%	95.2%	87.2%	93.9%	80.2%	87.3%	99.6%	94.2%	93.3%	92.7%	87.2%	83.6%	83.7%	6.58 ± 0.02 nM	96.9%	74.5%	3.78 ×10⁻⁶ cm/s	78.2%	Papp A→B [8]: 2.79 ×10⁻⁶ cm/s; Papp B→A [8]: 21.3 ×10⁻⁶ cm/s; efflux ratio [8]: 7.65; Papp A→B [7, 12]: 3.92 ×10⁻⁶ cm/s; Papp A→B [7, 16]: 4.05 ×10⁻⁶ cm/s; recovery [7, 17]: 70.7%
COC(=O)O[C@H]1C[C@H]2OC[C@@]2(OC(C)=O)[C@H]2[C@H](OC(=O)c3ccccc3)[C@]34OC(=O)O[C@H]3[C@H](OC(=O)[C@H](O)[C@H](CC(C)C)NC(=O)OC(C)(C)C)C(C)=C([C@@H](OC)C(=O)[C@]12C)C4(C)C [PCMI-20]	88.6%	85.4%	68.6%	93.4%	87.2%	94.3%	80.4%	86.8%	101%	95.5%	95%	93.8%	86%	81.1%	81.6%	2.94 ± 0.04 nM	96.9%	86.5%	1.08 ×10⁻⁶ cm/s	89.8%	Papp A→B [8]: 0.92 ×10⁻⁶ cm/s; Papp B-A (Caco-2 cell monolayer [1]): 7.16 10^−6 cm/s; efflux ratio (Caco-2 cell monolayer [1]): 7.81; Papp A→B [7, 12]: 0.92 ×10⁻⁶ cm/s; Papp A→B [7, 16]: 0.75 ×10⁻⁶ cm/s; recovery [7, 17]: 83.3%
CC(=O)O[C@H]1C(=O)[C@@]2(C)[C@H]([C@H](OC(=O)c3ccccc3)[C@]3(O)C[C@H](OC(=O)[C@H](O)[C@@H](NC(=O)c4ccccc4)c4ccccc4)C(C)=C1C3(C)C)[C@]1(OC(C)=O)CO[C@@H]1C[C@@H]2O [Paclitaxel, reference compound]																					Papp A-B (Caco-2 cell monolayer [9]): 0.97 10^−6 cm/s; Papp B-A (Caco-2 cell monolayer [9]): 33.39 10^−6 cm/s; efflux ratio (Caco-2 cell monolayer [9]): 34.38; reported absolute oral bioavailability [10]: less than 6%; IC50 ([6]; MCF7, 72 hours exposure, mean±SD of three experiments, read-out: MCF-7 (IC50)): 7.05 nM; Papp A→B ([7]; Caco-2, Papp A-B, Mean): 0.97 ×10⁻⁶ cm/s; Papp A→B ([7]; Caco-2, Papp A-B, Sample-01): 1.02 ×10⁻⁶ cm/s; Papp A→B ([7]; Caco-2, Papp A-B, Sample-02): 0.93 ×10⁻⁶ cm/s; recovery ([7]; Caco-2, Recovery rate in mass, Mean): 101%; recovery ([7]; Caco-2, Recovery rate in mass, Sample-01): 94.6%; recovery ([7]; Caco-2, Recovery rate in mass, Sample-02): 107%
